Usually IC50 stands for the midpoint of a concentration-inhibition curve. A higher IC50 goes with lower potency.

Experiment in all cases: cell-based
Holding throughout (conditions): mean ± SEM

One experiment concerns the target T1, rKv4.2 M279A (Rattus norvegicus, UniProt Q63881, M279A).
T1 construct: expressed in transfected cells; host or cells: HEK293T
T1 sequence (Q63881 1-630 M279A): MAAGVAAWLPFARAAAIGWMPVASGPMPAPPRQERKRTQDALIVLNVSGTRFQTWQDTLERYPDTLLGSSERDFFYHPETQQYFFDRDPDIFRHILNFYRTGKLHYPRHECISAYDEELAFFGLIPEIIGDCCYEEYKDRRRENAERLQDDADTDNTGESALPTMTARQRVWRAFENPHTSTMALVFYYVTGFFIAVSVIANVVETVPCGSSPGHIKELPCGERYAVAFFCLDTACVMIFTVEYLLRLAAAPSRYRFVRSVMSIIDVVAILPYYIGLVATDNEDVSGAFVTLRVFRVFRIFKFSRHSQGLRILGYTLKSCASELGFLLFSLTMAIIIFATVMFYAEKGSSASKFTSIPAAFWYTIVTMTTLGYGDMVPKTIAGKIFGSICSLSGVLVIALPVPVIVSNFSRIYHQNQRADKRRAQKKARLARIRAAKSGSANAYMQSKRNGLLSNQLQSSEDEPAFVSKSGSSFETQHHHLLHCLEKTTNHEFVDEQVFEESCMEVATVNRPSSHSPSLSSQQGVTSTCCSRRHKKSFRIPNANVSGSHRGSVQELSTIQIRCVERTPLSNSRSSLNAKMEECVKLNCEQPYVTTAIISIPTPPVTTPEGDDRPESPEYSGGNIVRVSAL

The target of another experiment is T2, rKv4.2 T280A (Rattus norvegicus, UniProt Q63881, T280A).
T2 construct: expressed in transfected cells; host or cells: HEK293T
T2 sequence (Q63881 1-630 T280A): T1 sequence (Q63881 1-630 M279A) with A279M, T280A

Another experiment has as its target T3, rKv4.2 D281K (Rattus norvegicus, UniProt Q63881, D281K).
T3 construct: expressed in transfected cells; host or cells: HEK293T
T3 sequence (Q63881 1-630 D281K): T1 sequence (Q63881 1-630 M279A) with A279M, D281K

The next experiment deals with T4, rKv4.2 D284K (Rattus norvegicus, UniProt Q63881, D284K).
T4 construct: expressed in transfected cells; host or cells: HEK293T
T4 sequence (Q63881 1-630 D284K): T1 sequence (Q63881 1-630 M279A) with A279M, D284K

Residue numbers refer to the chain shown, from its start. Positions of bridges follow the written chain, without caps; N, C: chain ends. Residues, ends and D or L forms follow the SMILES beside them.

As to `CC(C)C[C@H](NC(=O)[C@H](Cc1ccc(O)cc1)NC(=O)[C@@H](NC(=O)[C@H](CCCCN)NC(=O)[C@@H]1CSSC[C@@H]2NC(=O)[C@H](CCC(=O)O)NC(=O)[C@H](CC(N)=O)NC(=O)[C@H](CCCCN)NC(=O)CNC(=O)[C@@H]3CCCN3C(=O)[C@H]([C@@H](C)O)NC(=O)[C@@H]3CSSC[C@H](NC(=O)[C@H](C)NC(=O)[C@H](Cc4ccc(O)cc4)NC(=O)[C@H](CC(N)=O)NC(=O)[C@@H]4CCCN4C(=O)[C@H](CSSC[C@H](NC(=O)CN)C(=O)N[C@@H](CCCCN)C(=O)NCC(=O)N[C@@H](Cc4ccccc4)C(=O)NCC(=O)N[C@@H](CC(=O)O)C(=O)N[C@@H](CO)C(=O)N3)NC2=O)C(=O)N[C@@H](CO)C(=O)N[C@@H](CO)C(=O)N[C@@H](CCCCN)C(=O)N[C@@H](Cc2c[nH]cn2)C(=O)N[C@@H](CCCCN)C(=O)N[C@@H](Cc2c[nH]c3ccccc23)C(=O)N1)C(C)C)C(N)=O` [HNTX-III] (H-GCKGFGDSCTPGKNECCPNYACSSKHKWCKVYL-NH2; disulfide 2-17, 9-22, 16-29), the IC50 at rKv4.2 M279A was 1 ± 0.347 µM; against rKv4.2 T280A it was 0.038 ± 0.014 µM; against rKv4.2 D281K, 5 ± 1 µM; against rKv4.2 D284K it was over 20 µM.
Turning to `CC[C@H](C)[C@@H]1NC(=O)[C@@H]2CSSC[C@@H]3NC(=O)[C@H](C(C)C)NC(=O)[C@H](CC(C)C)NC(=O)[C@H](CC(N)=O)NC(=O)[C@@H]4CCCN4C(=O)[C@H](CCCNC(=N)N)NC(=O)[C@H](CSSC[C@H](NC(=O)[C@@H](N)CC(=O)O)C(=O)N[C@@H](CC(C)C)C(=O)NCC(=O)N[C@@H](C)C(=O)N[C@@H](Cc4ccccc4)C(=O)N[C@@H](CCCNC(=N)N)C(=O)N[C@@H](CCCCN)C(=O)N2)NC(=O)[C@H](CSSC[C@@H](C(=O)N[C@@H](CCCCN)C(=O)N[C@@H](Cc2ccc(O)cc2)C(=O)N[C@H](C(=O)N[C@@H](Cc2ccccc2)C(N)=O)C(C)C)NC(=O)[C@H](Cc2c[nH]c4ccccc24)NC(=O)[C@H](CCCNC(=N)N)NC(=O)[C@H](Cc2cnc[nH]2)NC(=O)[C@H](CC(C)C)NC(=O)[C@H](CCCNC(=N)N)NC(=O)[C@H](CO)NC3=O)NC(=O)[C@H](CCCCN)NC(=O)[C@H](CC(=O)O)NC(=O)[C@H](CC(N)=O)NC(=O)[C@H](CC(=O)O)NC(=O)[C@@H]2CCCN2C1=O` [mGpTx1] (H-DCLGAFRKCIPDNDKCCRPNLVCSRLHRWCKYVF-NH2; disulfide 2-17, 9-23, 16-30), the IC50 on rKv4.2 M279A amounted to 16.5 ± 9.01 µM; against rKv4.2 T280A, 0.15 ± 0.032 µM; against rKv4.2 D281K, 0.32 ± 0.045 µM; against rKv4.2 D284K (SEM), 0.663 ± 0.179 µM.
As for `CC[C@H](C)[C@H](NC(=O)[C@H](CCC(=O)O)NC(=O)[C@H](Cc1ccc(O)cc1)NC(=O)[C@H](CCCCN)NC(=O)[C@@H]1CSSC[C@@H]2NC(=O)[C@H](CCC(N)=O)NC(=O)[C@H](CC(=O)O)NC(=O)[C@H](CC(N)=O)NC(=O)[C@H](CO)NC(=O)[C@@H]3CCCN3C(=O)[C@H](CC(N)=O)NC(=O)[C@@H]3CSSC[C@H](NC(=O)[C@H](C(C)C)NC(=O)[C@H](CC(C)C)NC(=O)[C@H](CC(N)=O)NC(=O)[C@H](CO)NC(=O)[C@H](CO)NC(=O)[C@H](CCCCN)NC(=O)[C@H](CSSC[C@H](NC(=O)[C@@H](N)CCC(=O)O)C(=O)N[C@@H](CC(C)C)C(=O)NCC(=O)N[C@@H](Cc4ccccc4)C(=O)NCC(=O)N[C@@H](CCCCN)C(=O)NCC(=O)N3)NC2=O)C(=O)N[C@@H](CO)C(=O)N[C@@H](CCCNC(=N)N)C(=O)N[C@@H](CCCCN)C(=O)N[C@@H](Cc2c[nH]cn2)C(=O)N[C@@H](CCCNC(=N)N)C(=O)N[C@@H](Cc2c[nH]c3ccccc23)C(=O)N1)C(N)=O` [HNTX-IV], the IC50 was 0.167 ± 0.014 µM against rKv4.2 M279A, 0.136 ± 0.021 µM against rKv4.2 T280A, 0.191 ± 0.032 µM against rKv4.2 D281K and over 20 µM at rKv4.2 D284K.
For the compound `CSCC[C@@H]1NC(=O)CNC(=O)[C@H](CCC(=O)O)NC(=O)[C@@H]2CSSC[C@H](NC(=O)[C@@H](N)Cc3ccc(O)cc3)C(=O)N[C@@H](CCC(N)=O)C(=O)N[C@@H](CCCCN)C(=O)N[C@@H](Cc3c[nH]c4ccccc34)C(=O)N[C@@H](CCSC)C(=O)N[C@@H](Cc3c[nH]c4ccccc34)C(=O)N[C@@H]([C@@H](C)O)C(=O)N[C@H]3CSSC[C@H](NC(=O)[C@H](C(C)C)NC1=O)C(=O)N[C@@H](CCCNC(=N)N)C(=O)N[C@@H](CC(C)C)C(=O)N[C@@H](Cc1c[nH]c4ccccc14)C(=O)N[C@H](C(=O)N[C@@H](CCCCN)C(=O)N[C@@H](CCCCN)C(=O)N[C@@H](CCCCN)C(=O)N[C@@H](CC(C)C)C(=O)N[C@@H](Cc1c[nH]c4ccccc14)C(=O)O)CSSC[C@H](NC(=O)[C@H](CCCCN)NC(=O)[C@H](CCCNC(=N)N)NC(=O)[C@H](CCC(=O)O)NC(=O)[C@H](CO)NC(=O)[C@H](CC(=O)O)NC3=O)C(=O)N2` [ProTx-II], the IC50 on rKv4.2 M279A stood at 0.017 ± 0.005 µM; against rKv4.2 T280A, 0.089 ± 0.021 µM; against rKv4.2 D281K, 0.027 ± 0.002 µM; at rKv4.2 D284K (SEM), 0.02 ± 0.002 µM.
With `CC(C)C[C@@H]1NC(=O)[C@H](Cc2c[nH]c3ccccc23)NC(=O)[C@H](Cc2ccc(O)cc2)NC(=O)[C@H](CCCNC(=N)N)NC(=O)[C@@H](NC(=O)[C@@H](N)CCC(=O)O)CSSC[C@@H]2NC(=O)[C@@H]3CSSC[C@@H](C(=O)N[C@H](C(=O)N[C@@H](Cc4c[nH]c5ccccc45)C(=O)N[C@@H](CC(=O)O)C(=O)N[C@@H](Cc4c[nH]c5ccccc45)C(=O)N[C@H](C(=O)N[C@@H](Cc4ccccc4)C(N)=O)[C@@H](C)O)C(C)C)NC(=O)[C@H](Cc4c[nH]c5ccccc45)NC(=O)CNC(=O)[C@H](Cc4c[nH]cn4)NC(=O)[C@H](CCCCN)NC(=O)[C@@H]4CCCN4C(=O)[C@H](CO)NC(=O)[C@H](CSSC[C@H](NC(=O)[C@H]([C@@H](C)O)NC(=O)CNC1=O)C(=O)N[C@@H](CO)C(=O)N[C@@H](CCCCN)C(=O)N[C@@H]([C@@H](C)O)C(=O)NCC(=O)N[C@@H](CC(=O)O)C(=O)N3)NC(=O)[C@H](CO)NC(=O)[C@H](CC(C)C)NC(=O)[C@H](Cc1c[nH]cn1)NC(=O)[C@H](CO)NC2=O` [HNTX-VIIa] (H-ECRYWLGTCSKTGDCCSHLSCSPKHGWCVWDWTF-NH2; disulfide 2-16, 9-21, 15-28), the IC50 against rKv4.2 M279A was 0.042 ± 0.006 µM; against rKv4.2 T280A, 0.013 ± 0.002 µM; on rKv4.2 D281K, 0.033 ± 0.006 µM; against rKv4.2 D284K (SEM) it was 0.047 ± 0.006 µM.
